Results as given in PubChem BioAssay (NCI).
Where “and” joins values, the source holds several entries; their conditions need not be identical. Equal entries are not always repeated.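 The compound was tested at five concentrations on cells cultured in 96-well plates, with a 48-hour exposure period. GI50 is the concentration that inhibits growth by half. TGI marks complete inhibition of growth.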

Tests used:
Assay in all cases: inhibition of tumour cell growth, NCI panel, 48 h
786-0 renal = tested on: 786-0 renal
A498 renal = tested on: A498 renal
A549 NSCLC = tested on: A549 NSCLC
ACHN renal = tested on: ACHN renal
CAKI-1 renal = tested on: CAKI-1 renal
CCRF-CEM leukemia = tested on: CCRF-CEM leukemia
COLO 205 colon = tested on: COLO 205 colon
DLD-1 colon = tested on: DLD-1 colon
DMS 114 small cell lung = tested on: DMS 114 small cell lung
DMS 273 small cell lung = tested on: DMS 273 small cell lung
EKVX NSCLC = tested on: EKVX NSCLC
HCC-2998 colon = tested on: HCC-2998 colon
HCT-116 colon = tested on: HCT-116 colon
HCT-15 colon = tested on: HCT-15 colon
HL-60(TB) leukemia = tested on: HL-60(TB) leukemia
HOP-62 NSCLC = tested on: HOP-62 NSCLC
HOP-92 NSCLC = tested on: HOP-92 NSCLC
HT29 colon = tested on: HT29 colon
IGROV1 ovarian = tested on: IGROV1 ovarian
K-562 leukemia = tested on: K-562 leukemia
KM12 colon = tested on: KM12 colon
KM20L2 colon = tested on: KM20L2 colon
LOX IMVI melanoma = tested on: LOX IMVI melanoma
LXFL 529 NSCLC = tested on: LXFL 529 NSCLC
M14 melanoma = tested on: M14 melanoma
M19-MEL melanoma = tested on: M19-MEL melanoma
MALME-3M melanoma = tested on: MALME-3M melanoma
MOLT-4 leukemia = tested on: MOLT-4 leukemia
NCI-H226 lung = tested on: NCI-H226 lung
NCI-H23 lung = tested on: NCI-H23 lung
NCI-H460 lung = tested on: NCI-H460 lung
NCI-H522 lung = tested on: NCI-H522 lung
OVCAR-3 ovarian = tested on: OVCAR-3 ovarian
OVCAR-4 ovarian = tested on: OVCAR-4 ovarian
OVCAR-5 ovarian = tested on: OVCAR-5 ovarian
OVCAR-8 ovarian = tested on: OVCAR-8 ovarian
RPMI-8226 leukemia = tested on: RPMI-8226 leukemia
RXF 393 renal = tested on: RXF 393 renal
SF-268 CNS = tested on: SF-268 CNS
SF-295 CNS = tested on: SF-295 CNS
SF-539 CNS = tested on: SF-539 CNS
SK-MEL-2 melanoma = tested on: SK-MEL-2 melanoma
SK-MEL-28 melanoma = tested on: SK-MEL-28 melanoma
SK-MEL-5 melanoma = tested on: SK-MEL-5 melanoma
SK-OV-3 ovarian = tested on: SK-OV-3 ovarian
SN12C renal = tested on: SN12C renal
SNB-19 CNS = tested on: SNB-19 CNS
SNB-75 CNS = tested on: SNB-75 CNS
SNB-78 CNS = tested on: SNB-78 CNS
SW-620 colon = tested on: SW-620 colon
TK-10 renal = tested on: TK-10 renal
U251 CNS = tested on: U251 CNS
UACC-257 melanoma = tested on: UACC-257 melanoma
UACC-62 melanoma = tested on: UACC-62 melanoma
UO-31 renal = tested on: UO-31 renal

Cc1ccc2nc3c(Cl)c(C)c(=O)cc-3sc2c1
GI50 (786-0 renal): 96.3 µM
TGI (786-0 renal): > 100 µM
TGI (A498 renal): > 100 µM
TGI (A549 NSCLC): > 100 µM
GI50 (ACHN renal): 39.7 µM
TGI (ACHN renal): > 100 µM
GI50 (CAKI-1 renal): > 100 µM
TGI (CAKI-1 renal): > 100 µM
GI50 (CCRF-CEM leukemia): 30.5 µM
TGI (CCRF-CEM leukemia): > 100 µM
GI50 (COLO 205 colon): > 100 µM
TGI (COLO 205 colon): > 100 µM
GI50 (DLD-1 colon): 42.6 µM
TGI (DLD-1 colon): > 100 µM
GI50 (DMS 114 small cell lung): 25.4 µM
TGI (DMS 114 small cell lung): > 1 µM and 76 µM
TGI (DMS 273 small cell lung): > 100 µM
GI50 (EKVX NSCLC): 63.3 µM
TGI (EKVX NSCLC): > 100 µM
GI50 (HCC-2998 colon): > 100 µM
TGI (HCC-2998 colon): > 100 µM
GI50 (HCT-116 colon): 39.6 µM
TGI (HCT-116 colon): > 100 µM
GI50 (HCT-15 colon): 34.3 µM
TGI (HCT-15 colon): > 100 µM
TGI (HL-60(TB) leukemia): > 100 µM
GI50 (HOP-62 NSCLC): 47.8 µM
TGI (HOP-62 NSCLC): > 100 µM
TGI (HOP-92 NSCLC): > 100 µM
GI50 (HT29 colon): > 100 µM
TGI (HT29 colon): > 100 µM
GI50 (IGROV1 ovarian): > 100 µM
TGI (IGROV1 ovarian): > 100 µM
TGI (K-562 leukemia): > 100 µM
GI50 (KM12 colon): 78 µM
TGI (KM12 colon): > 100 µM
GI50 (KM20L2 colon): > 100 µM
TGI (KM20L2 colon): > 100 µM
TGI (LOX IMVI melanoma): > 100 µM
GI50 (LXFL 529 NSCLC): 62.9 µM
TGI (LXFL 529 NSCLC): > 100 µM
GI50 (M14 melanoma): 37.7 µM
TGI (M14 melanoma): > 100 µM
GI50 (M19-MEL melanoma): 46.4 µM
TGI (M19-MEL melanoma): > 100 µM
GI50 (MALME-3M melanoma): 73.8 µM
TGI (MALME-3M melanoma): > 100 µM
TGI (MOLT-4 leukemia): > 100 µM
GI50 (NCI-H226 lung): 60 µM
TGI (NCI-H226 lung): > 100 µM
GI50 (NCI-H23 lung): 23.7 µM
TGI (NCI-H23 lung): > 100 µM
GI50 (NCI-H460 lung): 50.3 µM
TGI (NCI-H460 lung): > 100 µM
TGI (NCI-H522 lung): > 100 µM
GI50 (OVCAR-3 ovarian): 50.2 µM
TGI (OVCAR-3 ovarian): > 100 µM
GI50 (OVCAR-4 ovarian): 61.7 µM
TGI (OVCAR-4 ovarian): > 100 µM
GI50 (OVCAR-5 ovarian): 73.7 µM
TGI (OVCAR-5 ovarian): > 100 µM
TGI (OVCAR-8 ovarian): > 100 µM
TGI (RPMI-8226 leukemia): > 100 µM
TGI (RXF 393 renal): > 100 µM
GI50 (SF-268 CNS): 43.6 µM
TGI (SF-268 CNS): > 100 µM
TGI (SF-295 CNS): > 100 µM
GI50 (SF-539 CNS): 50.9 µM
TGI (SF-539 CNS): > 100 µM
GI50 (SK-MEL-2 melanoma): 51.1 µM
TGI (SK-MEL-2 melanoma): > 100 µM
GI50 (SK-MEL-28 melanoma): > 100 µM
TGI (SK-MEL-28 melanoma): > 100 µM
TGI (SK-MEL-5 melanoma): > 100 µM
GI50 (SK-OV-3 ovarian): > 100 µM
TGI (SK-OV-3 ovarian): > 100 µM
GI50 (SN12C renal): 69 µM
TGI (SN12C renal): > 100 µM
GI50 (SNB-19 CNS): > 100 µM
TGI (SNB-19 CNS): > 100 µM
GI50 (SNB-75 CNS): 31.6 µM
TGI (SNB-75 CNS): > 100 µM
GI50 (SNB-78 CNS): 54 µM
TGI (SNB-78 CNS): > 100 µM
TGI (SW-620 colon): > 100 µM
GI50 (TK-10 renal): > 100 µM
TGI (TK-10 renal): > 100 µM
GI50 (U251 CNS): 45.1 µM
TGI (U251 CNS): > 100 µM
GI50 (UACC-257 melanoma): 78.4 µM
TGI (UACC-257 melanoma): > 100 µM
GI50 (UACC-62 melanoma): 27.8 µM
TGI (UACC-62 melanoma): > 1 µM and 92.2 µM
TGI (UO-31 renal): > 100 µM
